According to patent publication US11918621B2, “Methods and treatments using toll-like receptor agonists to mitigate hematopoietic myeloid loss, increase gastrointestinal recovery and reduce tumor growth” (priority 2017, dated 2024):
“Also recorded” adds a separate entry of the source. Peptide text beside a SMILES is read from it. * marks the point of attachment. X1 = CCCCCCCCCCCCCCCC(=O)OCC(C*)OC(=O)CCCCCCCCCCCCCCC

How the values were obtained:
B16 melanoma tumor cells = assay: B16 melanoma tumor model with cisplatin chemotherapy
Procedure: The impact of combining FSL-1 treatment with chemotherapy as a therapeutic against cancer was also tested. In this study, B16 melanoma tumor cells (50,000) in matrigel matrix were implanted into the flank (SC) of wild type animals and were allowed to grow 10 days to palpation (˜3-5 mm in diameter). Mice were then treated with chemotherapy agent cisplatin (intravenous IV, 100 μg/mouse) with and without FSL-1 (SC, 40 μg/mouse). Changes in tumor volume (ellipsoidal volume calculation of ½ width*width*length, mm^3) were monitored along with changes in body weight and condition.

[1] = system: mice treated with FSL-1 post TBI; assay: Late effects of radiation: long-term survivors, MRI of tissues; type: in vivo; settings: survivors of more than 600 days
Text: MRI was used to detect multiple tissues in these survivors, such as brain, gut, kidney or spleen. […] FSL-1 is found to accelerate hematopoietic cell recovery in bone marrow, spleen and periphery, and augments systemic levels of hematopoiesis stimulating factors (G-CSF).

[2] = system: irradiated male C57BL/6 mice; assay: Radiomitigation activity of TLR2 ligands after TBI; type: in vivo; settings: IP injection 24 hr post TBI
Procedure: The radiomitigation activity of TLR2 ligands was delineated (FIGS. 1C and 1D), including FSL-1, by irradiating male C57BL/6 mice and treating (IP injections) with either FSL-1, Pam2CSK4 (Pam2Cys-SKKKK, TLR2/6 ligand), or Pam3CSK4 (Pam3Cys-SKKKK, TLR1/2 ligand) at 24 hours (hr) post TBI.

[3] = system: C57BL/6 mice exposed to 9.2 Gy gamma radiation (total body irradiation); assay: Survival and clinical score after lethal total body irradiation, TLR ligands given IP; type: in vivo; settings: 9.2 Gy TBI, IP injection one day after radiation, survival over 30 days
Procedure: To examine the role of TLR ligands as radio-mitigators, FSL-1 (TLR2/6 ligand) was first compared with other TLR ligands (FIGS. 1A and 1B). In this experiment, C57BL/6 mice were exposed to 9.2 Gy gamma radiation (total body irradiation, or TBI) using 137-Cesium irradiator and then the mice were treated with TLR ligands via intraperitoneal (IP) injections one day after radiation. The impact of CpG-ODN2395 (CpG, TLR9 agonist), Flagellin FliC (Fla, TLR5 agonist), MPLA (TLR4 agonist) or FSL-1 (Pam2[…], TLR2/6 agonist) in comparison to mice treated with physiological water (no treatment, NT) was examined. Survival was monitored over 30 days and clinical scores were recorded. […] Eight independent experiments have been completed, each showing the survival rate of FSL-1-treated mice ranged from 50% to 100% with the mean rate of 80%. The lowest one is presented herein.
The Clinical Score is based on changes to body condition that included body weight, body temperature, physical appearance, grooming, posture, activity/behavior, appetite and hydration. Supplementation with wet feed, subcutaneous fluids, long sipper tubes, were provided as needed.

irradiated mice = settings: only when injected subcutaneously daily from day 1 to 16 (16 doses); cited from earlier work

## N.N.[Cl][Pt][Cl] [cisplatin]
B16 melanoma tumor cells; by day 19
  animals reaching the 2 cm tumor diameter endpoint: two
B16 melanoma tumor cells; mouse, in vivo
  body condition: reduced body condition
  body weight: dramatically lost weight after day 19

## CCCCCCCCCCCCCCCC(=O)OCC(CSC[C@H](N)C(=O)NCC(=O)N[C@@H](CC(=O)O)C(=O)N1CCC[C@H]1C(=O)N[C@@H](CCCCN)C(=O)N[C@@H](Cc1c[nH]cn1)C(=O)N1CCC[C@H]1C(=O)N[C@@H](CCCCN)C(=O)N[C@@H](CO)C(=O)N[C@@H](Cc1ccccc1)C(=O)O)OC(=O)CCCCCCCCCCCCCCC (stereo partly shown) [FSL-1] (H-C(X1)GDPKHPKSF-OH)
[1]
  MRI of tissues (brain, gut, kidney, spleen): no physiologic changes
  symptoms of disease in long-term survivors: no symptoms of any diseases; also recorded: without any symptoms of leukemia or other diseases
B16 melanoma tumor cells; mouse, in vivo
  body weight: maintained weight for nearly 2 weeks following treatment

## Pam3Cys-SKKKK [Pam3CSK4]
[2]
  survival: promoted survival

## Pam2Cys-SKKKK [Pam2CSK4]
[2]
  survival: promoted survival

B1: Flagellin FliC: TLR5 agonist (protein, UniProt P06179 2-495, looked up)
Flagellin: AQVINTNSLSLLTQNNLNKSQSALGTAIERLSSGLRINSAKDDAAGQAIANRFTANIKGLTQASRNANDGISIAQTTEGALNEINNNLQRVRELAVQSANSTNSQSDLDSIQAEITQRLNEIDRVSGQTQFNGVKVLAQDNTLTIQVGANDGETIDIDLKQINSQTLGLDTLNVQQKYKVSDTAATVTGYADTTIALDNSTFKASATGLGGTDQKIDGDLKFDDTTGKYYAKVTVTGGTGKDGYYEVSVDKTNGEVTLAGGATSPLTGGLPATATEDVKNVQVANADLTEAKAALTAAGVTGTASVVKMSYTDNNGKTIDGGLAVKVGDDYYSATQNKDGSISINTTKYTADDGTSKTALNKLGGADGKTEVVSIGGKTYAASKAEGHNFKAQPDLAEAAATTTENPLQKIDAALAQVDTLRSDLGAVQNRFNSAITNLGNTVNNLTSARSRIEDSDYATEVSNMSRAQILQQAGTSVLAQANQVPQNVLSLLR
[3]
  protection from radiation-induced death: did not show any protection

B2: G-CSF: granulocyte colony-stimulating factor, approved radiation countermeasure (protein, UniProt P09919 31-207, looked up)
Granulocyte …: TPLGPASSLPQSFLLKCLEQVRKIQGDGAALQEKLVSECATYKLCHPEELVLLGHSLGIPWAPLSSCPSQALQLAGCLSQLHSGLFLYQGLLQALEGISPELGPTLDTLQLDVADFATTIWQQMEELGMAPALQPTQGAMPAFASAFQRRAGGVLVASHLQSFLEVSYRVLRHLAQP
Irradiated mice
  survival of irradiated mice: increase the survival
